{
  "source": "ChEMBL document CHEMBL4814046",
  "about": "“Inhibitory effects and mechanism of antifungal action of the natural cyclic depsipeptide, aureobasidin A against Cryptococcus neoformans” (Bioorg Med Chem Lett, 2021)",
  "key": {"[1]": {"tested_on": "Cryptococcus neoformans", "assay": "Inhibition of ergosterol biosynthesis in Cryptococcus neoformans PFCC 93-589 cell membrane assessed as ergosterol content at 1 times MIC incubated for 48 hrs by UV-visible spectrophotometric analysis (reference value: 0.134)", "type": "functional, cell membranes"}, "[2]": {"tested_on": "Cryptococcus neoformans", "assay": "Inhibition of ergosterol biosynthesis in Cryptococcus neoformans PFCC 93-589 cell membrane at 1 times MIC incubated for 48 hrs by UV-visible spectrophotometric analysis", "type": "functional, cell membranes"}, "[3]": {"tested_on": "Cryptococcus neoformans", "assay": "Antifungal activity against Cryptococcus neoformans PFCC 93-589 after 7 days in presence of sorbitol by microdilution assay", "type": "functional", "conditions": "PFCC 93-589, 168 h, time 7 day"}, "[4]": {"assay": "Hemolytic activity in human RBC at 2 ug/ml incubated for 30 mins", "type": "ADME, cell-based, Erythrocyte", "conditions": "red blood cells (erythrocytes), at 2 µg/mL, read-out: Activity"}, "[5]": {"tested_on": "Cryptococcus neoformans", "assay": "Antifungal activity against Cryptococcus neoformans PFCC 93-589 after 2 days in absence of sorbitol by microdilution assay", "type": "functional", "conditions": "PFCC 93-589, 48 h, time 2 day"}, "[6]": {"tested_on": "Cryptococcus neoformans", "assay": "Antifungal activity against Cryptococcus neoformans PFCC 93-589 by broth microdilution assay", "type": "functional"}, "[7]": {"assay": "Hemolytic activity in human RBC at 1 ug/ml incubated for 30 mins", "type": "ADME, cell-based, Erythrocyte", "conditions": "red blood cells (erythrocytes), at 1 µg/mL, read-out: Activity"}, "[8]": {"assay": "Hemolytic activity in human RBC at 8 ug/ml incubated for 30 mins", "type": "ADME, cell-based, Erythrocyte", "conditions": "red blood cells (erythrocytes), at 8 µg/mL, read-out: Activity"}, "[9]": {"tested_on": "Cryptococcus neoformans", "assay": "Antifungal activity against Cryptococcus neoformans PFCC 93-589 assessed as half minimum inhibitory concentration by broth microdilution assay", "type": "functional"}, "[10]": {"tested_on": "Cryptococcus neoformans", "assay": "Downregulation of Cxt1p gene expression in Cryptococcus neoformans PFCC 93-589 at 4 ug/ml by SYBR green based RT-PCR analysis", "type": "functional", "conditions": "dose 4.0 µg/ml"}, "[11]": {"tested_on": "Cryptococcus neoformans", "assay": "Antifungal activity against Cryptococcus neoformans PFCC 93-589 after 2 days in presence of sorbitol by microdilution assay", "type": "functional", "conditions": "PFCC 93-589, 48 h, time 2 day"}, "[12]": {"tested_on": "Cryptococcus neoformans", "assay": "Inhibition of ergosterol biosynthesis in Cryptococcus neoformans PFCC 93-589 cell membrane assessed as ergosterol content at 0.5 times MIC incubated for 48 hrs by UV-visible spectrophotometric analysis (reference value: 0.134)", "type": "functional, cell membranes"}, "[13]": {"assay": "Cytotoxicity against human HEK293 cells assessed as cell survival at 0.5 times MIC incubated for 24 hrs by MTT assay", "type": "cell-based", "conditions": "read-out: Activity"}, "[14]": {"tested_on": "Cryptococcus neoformans", "assay": "Antifungal activity against Cryptococcus neoformans PFCC 93-589 after 7 days in absence of sorbitol by microdilution assay", "type": "functional", "conditions": "PFCC 93-589, 168 h, time 7 day"}, "[15]": {"tested_on": "Cryptococcus neoformans", "assay": "Inhibition of ergosterol biosynthesis in Cryptococcus neoformans PFCC 93-589 cell membrane at 0.5 times MIC incubated for 48 hrs by UV-visible spectrophotometric analysis", "type": "functional, cell membranes"}, "[16]": {"tested_on": "Cryptococcus neoformans", "assay": "Fungicidal activity against Cryptococcus neoformans PFCC 93-589 by broth microdilution assay", "type": "functional"}, "[17]": {"tested_on": "Cryptococcus neoformans", "assay": "Induction of morphological changes in Cryptococcus neoformans PFCC 93-589 assessed as disintegration and loosening of cell membrane at 4 ug/ml after 48 hrs by TEM analysis", "type": "functional, organism-based", "conditions": "dose 4.0 µg/ml"}, "[18]": {"assay": "Cytotoxicity against human HEK293 cells assessed as cell survival at 1 times MIC incubated for 24 hrs by MTT assay", "type": "cell-based", "conditions": "read-out: Activity"}, "[19]": {"assay": "Cytotoxicity against human HEK293 cells assessed as cell survival at 0.25 times MIC incubated for 24 hrs by MTT assay", "type": "cell-based", "conditions": "read-out: Activity"}, "[20]": {"assay": "Hemolytic activity in human RBC at 16 ug/ml incubated for 30 mins", "type": "ADME, cell-based, Erythrocyte", "conditions": "red blood cells (erythrocytes), at 16 µg/mL, read-out: Activity"}, "[21]": {"tested_on": "Cryptococcus neoformans", "assay": "Antifungal activity against Cryptococcus neoformans PFCC 93-589 in presence of Aureobasidin-A by checkerboard microtiter assay", "type": "functional"}, "[22]": {"assay": "Cytotoxicity against human HEK293 cells assessed as cell viability at 2 times MIC incubated for 24 hrs by MTT assay", "type": "cell-based", "conditions": "read-out: Activity"}, "[23]": {"tested_on": "Cryptococcus neoformans", "assay": "Antifungal activity against Cryptococcus neoformans PFCC 93-589 assessed as inhibition of melanin production at 0.5 times MIC incubated for 2 to 10 days", "type": "functional, organism-based", "conditions": "time 2-10 day"}, "[24]": {"assay": "Hemolytic activity in human RBC at 4 ug/ml incubated for 30 mins", "type": "cell-based, Erythrocyte", "conditions": "red blood cells (erythrocytes), at 4 µg/mL, read-out: Activity"}, "[25]": {"tested_on": "Cryptococcus neoformans", "assay": "Upregulation of Lac1 gene expression in Cryptococcus neoformans PFCC 93-589 at 4 ug/ml by SYBR green based RT-PCR analysis", "type": "functional", "conditions": "dose 4.0 µg/ml"}, "[26]": {"tested_on": "Cryptococcus neoformans", "assay": "Induction of morphological changes in Cryptococcus neoformans PFCC 93-589 assessed as disorganization of cytoplasmic content at 4 ug/ml after 48 hrs by TEM analysis", "type": "functional, organism-based", "conditions": "dose 4.0 µg/ml"}},
  "note": "Active and inactive are the calls of the source. The rule behind the calls is not given here.",
  "data": [
    {"smiles": "OC(Cn1cncn1)(Cn1cncn1)c1ccc(F)cc1F", "note": "[FLUCONAZOLE]", "values": [
      {"measurement": "Activity", "setting": "[1]", "result": 0.047},
      {"measurement": "inhibition", "setting": "[2]", "result": 64.9, "unit": "%"},
      {"measurement": "MIC", "setting": "[3]", "result": 64, "unit": "µg/mL"},
      {"measurement": "hemolysis at 0.5 h, 2 ug/ml", "setting": "[4]", "result": 29, "unit": "%"},
      {"measurement": "MIC", "setting": "[5]", "result": 16, "unit": "µg/mL"},
      {"measurement": "MIC", "setting": "[6]", "result": 8, "unit": "µg/mL"},
      {"measurement": "hemolysis at 0.5 h, 1 ug/ml", "setting": "[7]", "result": 18, "unit": "%"},
      {"measurement": "hemolysis at 0.5 h, 8 ug/ml", "setting": "[8]", "result": 42, "unit": "%"},
      {"measurement": "MIC", "setting": "[9]", "result": 4, "unit": "µg/mL"},
      {"measurement": "inhibition", "setting": "[10]", "result": "inactive"},
      {"measurement": "MIC", "setting": "[11]", "result": 16, "unit": "µg/mL"},
      {"measurement": "Activity", "setting": "[12]", "result": 0.055},
      {"measurement": "viability at 24 h, 0.5 times MIC", "setting": "[13]", "result": 97.9, "unit": "%"},
      {"measurement": "MIC", "setting": "[14]", "result": 64, "unit": "µg/mL"},
      {"measurement": "inhibition", "setting": "[15]", "result": 59, "unit": "%"},
      {"measurement": "MFC", "setting": "[16]", "result": 16, "unit": "µg/mL"},
      {"measurement": "Activity", "setting": "[17]", "result": "Active"},
      {"measurement": "viability at 24 h, 1 times MIC", "setting": "[18]", "result": 95.5, "unit": "%"},
      {"measurement": "viability at 24 h, 0.25 times MIC", "setting": "[19]", "result": 99.9, "unit": "%"},
      {"measurement": "hemolysis at 0.5 h, 16 ug/ml", "setting": "[20]", "result": 53, "unit": "%"},
      {"measurement": "MIC", "setting": "[21]", "result": 0.5, "unit": "µg/mL"},
      {"measurement": "viability at 24 h, 2 times MIC", "setting": "[22]", "result": 88.6, "unit": "%"},
      {"measurement": "Activity", "setting": "[23]", "result": "Active"},
      {"measurement": "hemolysis at 0.5 h, 4 ug/ml", "setting": "[24]", "result": 34, "unit": "%"},
      {"measurement": "Activity", "setting": "[25]", "result": "inactive"},
      {"measurement": "Activity", "setting": "[26]", "result": "Active"}
    ]}
  ]
}
